Calls of active or inactive are those of the source.
Columns and labels:
[1] = HPDE-C7 pancreatic duct cell viability loss – fluorescence, HTS (AID 430); type: functional, cell-based; details: Homo sapiens
NS3 = NS3 (Hepatitis C virus, UniProt A3EZJ3); assay: PubChem AID 2173; design: species or system Hepacivirus hominis
[2] = viability loss of HPDE-C7K cells – cell-based, fluorescence, HTS, primary screen (AID 431); type: functional; details: Homo sapiens
[3] = molecular target: T1, Neuropeptide Y receptor type 1 (Homo sapiens, UniProt P25929); type: functional;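 as to IC50: HEK293 cells with a CNG channel challenged with NPY then isoproterenol; potency as antagonist that reverses NPY suppression of cAMP signal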
T1 sequence (P25929 whole entry): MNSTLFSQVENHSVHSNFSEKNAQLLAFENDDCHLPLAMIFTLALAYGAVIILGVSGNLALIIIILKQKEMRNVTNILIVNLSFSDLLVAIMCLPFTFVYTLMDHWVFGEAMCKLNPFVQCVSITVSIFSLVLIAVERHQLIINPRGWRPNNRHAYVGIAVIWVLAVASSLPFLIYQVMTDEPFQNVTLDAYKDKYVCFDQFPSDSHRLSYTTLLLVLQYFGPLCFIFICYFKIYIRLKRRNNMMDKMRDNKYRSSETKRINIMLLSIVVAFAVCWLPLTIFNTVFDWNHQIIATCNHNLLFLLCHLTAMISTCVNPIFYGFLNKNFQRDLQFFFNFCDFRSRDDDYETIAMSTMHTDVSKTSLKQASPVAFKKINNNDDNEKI

[4] = molecular target: T2, Neuropeptide Y receptor type 2 (Homo sapiens, UniProt P49146); type: functional, cell-based;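 as to IC50: HEK293 cells expressing the receptor and a CNG channel; stimulus was NPY near EC95 followed by isoproterenol to raise cAMP; antagonist potency measured as restoring cAMP signal that NPY suppresses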
T2 sequence (P49146 whole entry): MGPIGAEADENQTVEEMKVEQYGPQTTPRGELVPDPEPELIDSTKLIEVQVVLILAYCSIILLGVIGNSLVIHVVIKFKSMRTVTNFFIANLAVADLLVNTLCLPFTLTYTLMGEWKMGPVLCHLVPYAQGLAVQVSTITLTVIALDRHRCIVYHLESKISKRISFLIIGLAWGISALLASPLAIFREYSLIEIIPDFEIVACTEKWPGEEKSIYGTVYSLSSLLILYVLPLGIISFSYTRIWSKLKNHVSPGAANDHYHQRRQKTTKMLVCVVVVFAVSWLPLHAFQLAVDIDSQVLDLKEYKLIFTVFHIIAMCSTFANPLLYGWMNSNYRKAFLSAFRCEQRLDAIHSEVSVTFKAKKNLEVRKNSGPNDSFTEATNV

[5] = molecular target: E3 ubiquitin-protein ligase XIAP (Homo sapiens, UniProt P98170); assay: Counter Screen using XIAP-Bir3 for Chemical Antagonists of Bir1/2 domains of IAP-family anti-apoptotic proteins. [Related pubchem assays (depositor defined):AID1018, AID1449, AID1514, AID1638, AID1749, AID1750, AID488957, AID488963]
E3 ubiquitin-protein ligase XIAP, sequence (P98170 whole entry): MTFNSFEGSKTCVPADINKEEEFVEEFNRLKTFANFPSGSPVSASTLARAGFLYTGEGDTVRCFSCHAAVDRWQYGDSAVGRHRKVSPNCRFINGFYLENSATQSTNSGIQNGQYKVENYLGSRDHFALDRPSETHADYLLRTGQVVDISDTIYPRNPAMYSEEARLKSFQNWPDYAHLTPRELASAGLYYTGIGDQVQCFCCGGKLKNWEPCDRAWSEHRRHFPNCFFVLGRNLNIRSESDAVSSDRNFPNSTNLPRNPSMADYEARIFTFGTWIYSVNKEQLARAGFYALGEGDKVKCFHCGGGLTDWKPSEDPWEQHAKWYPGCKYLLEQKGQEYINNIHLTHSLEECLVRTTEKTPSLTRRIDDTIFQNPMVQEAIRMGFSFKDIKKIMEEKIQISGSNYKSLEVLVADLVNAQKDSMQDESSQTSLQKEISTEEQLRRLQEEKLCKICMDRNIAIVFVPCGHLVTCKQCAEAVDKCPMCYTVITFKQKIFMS

HEK293 [6] = assay: membrane integrity loss in HEK cells – cell-based, fluorescence, cytotoxicity control for IDE activator project, dose response (AID 588440); type: functional; details: Homo sapiens;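 also: cytotoxicity by LDH release measuring loss of membrane integrity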
Beta-lactamase [7] = molecular target: Beta-lactamase (Pseudomonas aeruginosa, UniProt Q79MP6);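 also: biochemical dose-response test of metallo-beta-lactamase enzyme inhibition, read out by epi-absorbance; purified recombinant IMP-1 metallo-beta-lactamase with nitrocefin as substrate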
Beta-lactamase (Pseudomonas aeruginosa, UniProt Q79MP6), sequence (Q79MP6 whole entry): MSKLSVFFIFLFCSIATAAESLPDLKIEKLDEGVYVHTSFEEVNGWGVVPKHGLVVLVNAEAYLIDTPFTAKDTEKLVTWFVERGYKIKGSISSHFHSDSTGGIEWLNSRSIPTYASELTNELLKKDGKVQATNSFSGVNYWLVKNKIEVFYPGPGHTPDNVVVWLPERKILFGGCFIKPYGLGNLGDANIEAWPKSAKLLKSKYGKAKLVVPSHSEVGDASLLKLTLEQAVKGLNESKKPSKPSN

Insulin-degrading enzyme [8] = molecular target: T3, Insulin-degrading enzyme (Homo sapiens, UniProt P14735); assay: cellular IDE activation of Abeta substrate cleavage – fluorescence polarization, HEK cells, dose response (AID 588439); type: functional, cell-based
T3 sequence (P14735 whole entry): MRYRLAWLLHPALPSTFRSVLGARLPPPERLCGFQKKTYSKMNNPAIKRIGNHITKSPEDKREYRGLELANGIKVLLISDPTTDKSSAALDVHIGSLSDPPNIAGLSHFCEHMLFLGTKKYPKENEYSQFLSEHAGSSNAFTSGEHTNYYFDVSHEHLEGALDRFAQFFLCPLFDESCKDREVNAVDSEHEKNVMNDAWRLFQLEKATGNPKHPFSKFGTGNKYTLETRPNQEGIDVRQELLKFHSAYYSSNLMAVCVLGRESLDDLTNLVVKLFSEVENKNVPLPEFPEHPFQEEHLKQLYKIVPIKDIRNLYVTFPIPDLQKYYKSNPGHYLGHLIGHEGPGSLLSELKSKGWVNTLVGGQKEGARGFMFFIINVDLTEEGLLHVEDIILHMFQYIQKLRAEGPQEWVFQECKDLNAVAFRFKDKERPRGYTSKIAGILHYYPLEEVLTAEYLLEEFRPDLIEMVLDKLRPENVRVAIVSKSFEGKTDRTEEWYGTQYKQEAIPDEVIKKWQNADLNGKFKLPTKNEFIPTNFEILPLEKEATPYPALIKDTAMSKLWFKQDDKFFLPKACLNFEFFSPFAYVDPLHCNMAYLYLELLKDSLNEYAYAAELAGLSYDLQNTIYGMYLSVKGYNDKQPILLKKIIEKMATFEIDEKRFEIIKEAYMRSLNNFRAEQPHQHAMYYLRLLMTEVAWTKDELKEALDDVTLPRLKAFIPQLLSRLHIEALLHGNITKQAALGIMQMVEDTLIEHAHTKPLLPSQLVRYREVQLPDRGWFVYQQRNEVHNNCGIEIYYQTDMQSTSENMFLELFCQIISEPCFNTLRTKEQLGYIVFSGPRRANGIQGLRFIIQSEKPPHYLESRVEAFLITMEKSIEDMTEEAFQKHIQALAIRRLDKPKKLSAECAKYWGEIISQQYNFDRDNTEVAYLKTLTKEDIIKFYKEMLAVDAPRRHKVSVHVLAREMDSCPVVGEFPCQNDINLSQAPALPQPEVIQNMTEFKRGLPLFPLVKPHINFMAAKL

Insulin-degrading enzyme [9] = molecular target: T3, Insulin-degrading enzyme; assay: recombinant IDE activation, cell-free – biochemical, fluorescence polarization, counter-screen for IDE activator project, dose response (AID 588681)
HEK293 [10] = assay: optical interference in Abeta FP readout, dose response, artefact control for IDE activator project, biochemical, fluorescence polarization (AID 588442); type: functional, cell-based; details: Homo sapiens
Beta-lactamase [11] = molecular target: Beta-lactamase (Salmonella choleraesuis (strain SC-B67), UniProt Q5J463)
Beta-lactamase (Salmonella choleraesuis (strain SC-B67), UniProt Q5J463), sequence (Q5J463 whole entry, the tested form may be a part): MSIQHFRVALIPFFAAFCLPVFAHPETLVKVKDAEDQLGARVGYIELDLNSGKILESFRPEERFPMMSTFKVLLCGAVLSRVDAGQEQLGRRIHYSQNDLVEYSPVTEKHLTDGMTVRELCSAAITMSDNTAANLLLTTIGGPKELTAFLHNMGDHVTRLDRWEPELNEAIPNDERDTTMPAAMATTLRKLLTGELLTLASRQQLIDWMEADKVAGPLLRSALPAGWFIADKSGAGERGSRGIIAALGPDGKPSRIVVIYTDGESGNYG

[12] = CCR5-tropic HIV-1 fusion blockers – cell-based, CCR5-tropic Env, dose response (AID 2279); type: functional
[13] = fluconazole-exposed Candida albicans growth modulators – fluorescence, retest, confirmation (AID 2467); type: functional, cell-based
Large T antigen = Large T antigen (Simian virus 40, UniProt P03070); type: functional, Betapolyomavirus macacae;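 also: Confirmatory-stage PubChem screen for compounds that inhibit SV40 T antigen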
Large T antigen, sequence (P03070 whole entry): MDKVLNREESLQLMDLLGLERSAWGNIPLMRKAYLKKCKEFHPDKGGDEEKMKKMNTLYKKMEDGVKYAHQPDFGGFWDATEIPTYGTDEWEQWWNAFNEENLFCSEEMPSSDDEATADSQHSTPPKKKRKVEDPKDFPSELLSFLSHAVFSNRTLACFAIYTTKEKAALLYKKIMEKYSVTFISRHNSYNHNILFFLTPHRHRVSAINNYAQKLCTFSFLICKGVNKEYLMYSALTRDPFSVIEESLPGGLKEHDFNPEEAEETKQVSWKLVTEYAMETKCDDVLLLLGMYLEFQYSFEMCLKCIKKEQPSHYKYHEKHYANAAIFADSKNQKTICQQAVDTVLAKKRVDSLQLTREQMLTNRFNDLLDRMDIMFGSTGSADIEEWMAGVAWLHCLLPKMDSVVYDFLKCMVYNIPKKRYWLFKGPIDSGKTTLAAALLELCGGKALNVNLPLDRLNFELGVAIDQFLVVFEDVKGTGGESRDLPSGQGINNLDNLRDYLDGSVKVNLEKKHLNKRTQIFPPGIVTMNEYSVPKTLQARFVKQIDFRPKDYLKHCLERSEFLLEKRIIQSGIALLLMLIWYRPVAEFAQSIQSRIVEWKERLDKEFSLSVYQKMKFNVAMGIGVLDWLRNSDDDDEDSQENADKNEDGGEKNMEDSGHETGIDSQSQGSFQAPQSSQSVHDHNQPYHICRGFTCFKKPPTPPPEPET

[14] = molecular target: ATP-dependent molecular chaperone HSP82 (Candida albicans (strain WO-1) (Yeast), UniProt C4YTQ8); assay: steroid-induced GRE reporter decrease in yeast – S. cerevisiae, luminescence, Hsp90 inhibitor project, dose response (AID 2400); type: functional, cell-based;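 also: beta-galactosidase luminescence from glucocorticoid response element reporter as proxy for Hsp90 function; inhibitor potency where signal loss means Hsp90 inhibition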
ATP-dependent molecular chaperone HSP82, sequence (C4YTQ8 whole entry): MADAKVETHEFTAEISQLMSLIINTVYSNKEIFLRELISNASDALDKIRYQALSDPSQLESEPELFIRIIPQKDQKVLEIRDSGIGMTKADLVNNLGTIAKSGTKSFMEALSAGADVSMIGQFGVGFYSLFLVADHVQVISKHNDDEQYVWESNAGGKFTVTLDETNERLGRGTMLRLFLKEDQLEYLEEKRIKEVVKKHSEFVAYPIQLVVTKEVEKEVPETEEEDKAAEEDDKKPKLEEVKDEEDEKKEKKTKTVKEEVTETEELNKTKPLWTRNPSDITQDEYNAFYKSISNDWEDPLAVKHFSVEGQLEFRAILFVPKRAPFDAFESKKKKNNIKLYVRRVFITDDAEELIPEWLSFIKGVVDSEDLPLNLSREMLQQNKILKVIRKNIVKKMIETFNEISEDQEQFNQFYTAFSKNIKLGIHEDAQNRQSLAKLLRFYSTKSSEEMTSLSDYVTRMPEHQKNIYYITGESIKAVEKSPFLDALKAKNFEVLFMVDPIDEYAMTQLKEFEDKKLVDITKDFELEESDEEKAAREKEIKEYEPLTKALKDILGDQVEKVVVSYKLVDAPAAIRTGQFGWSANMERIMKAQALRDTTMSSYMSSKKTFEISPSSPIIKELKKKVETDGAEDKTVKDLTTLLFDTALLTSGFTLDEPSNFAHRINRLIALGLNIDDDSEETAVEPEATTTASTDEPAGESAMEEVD

[15] = molecular target: T4, Serine/threonine-protein phosphatase (Candida dubliniensis (strain CD36 / CBS 7987 / NCPF 3949 / NRRLY-17841) (Yeast), UniProt B9W6M3); assay: blockers of CaCl2-induced CDRE-lacZ signaling – S. cerevisiae, luminescence, secondary, dose response (AID 2388); type: functional, cell-based;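 also: yeast reporter cells carrying a calcineurin-responsive lacZ construct stimulated with calcium chloride; luminescent beta-galactosidase reporter signal in whole cells rather than isolated phosphatase activity; potency for inhibition where a drop in reporter signal means calcineurin blockade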
T4 sequence (B9W6M3 whole entry): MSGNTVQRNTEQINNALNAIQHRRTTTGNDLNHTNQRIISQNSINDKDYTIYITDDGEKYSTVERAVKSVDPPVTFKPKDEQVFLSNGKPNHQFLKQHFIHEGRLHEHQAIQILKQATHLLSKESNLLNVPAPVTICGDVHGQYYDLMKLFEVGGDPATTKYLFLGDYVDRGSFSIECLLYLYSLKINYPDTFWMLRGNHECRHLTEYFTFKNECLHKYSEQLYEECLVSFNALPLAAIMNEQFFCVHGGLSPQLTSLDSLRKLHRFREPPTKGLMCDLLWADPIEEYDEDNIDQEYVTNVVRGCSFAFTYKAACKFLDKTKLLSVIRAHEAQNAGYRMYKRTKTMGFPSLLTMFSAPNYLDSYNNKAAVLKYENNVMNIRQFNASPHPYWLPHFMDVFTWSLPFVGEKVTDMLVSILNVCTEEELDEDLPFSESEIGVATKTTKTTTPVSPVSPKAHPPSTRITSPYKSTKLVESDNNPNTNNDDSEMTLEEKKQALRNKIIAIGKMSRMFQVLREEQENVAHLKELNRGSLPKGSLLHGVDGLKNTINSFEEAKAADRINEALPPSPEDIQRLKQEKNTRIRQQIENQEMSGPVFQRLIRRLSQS

[16] = NIH-3T3 fibroblast cytotoxicity, dose response, cytotoxicity control, cell-based, fluorescence, Alamar Blue, secondary assay (AID 2327); type: functional;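 also: NIH-3T3 mouse fibroblasts cultured with fluconazole at 8 µg/mL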
[17] = molecular target: T2, Neuropeptide Y receptor type 2; assay: Fluorescence counterscreen for potentiators or agonists of NPY-Y1: Cell-based high-throughput dose response assay for potentiators or agonists of NPY-Y2.; type: functional
[18] = test system: Streptococcus sp. 'group A'; assay: Streptococcus pyogenes SK(-)GAS viability under kanamycin – luminescence, BacTiterGlo, confirmation, counter-screen for streptokinase expression inhibitor project, dose response (AID 1900); type: functional, organism-based
[19] = molecular target: T2, Neuropeptide Y receptor type 2; assay: Fluorescence-based counterscreen for agonists of NPY-Y1: cell-based high-throughput dose response assay for agonists of NPY-Y2.; type: functional
[20] = molecular target: T1, Neuropeptide Y receptor type 1; assay: Fluorescence-based dose response cell-based high-throughput screening assay for potentiators or agonists of NPY-Y1.; type: functional
HEK293 [21] = assay: Fluorescence-based counterscreen for potentiators or agonists of NPY-Y1: cell-based high-throughput dose response assay for inhibitors of cyclic nucleotide gated ion channel (CNGC) activity. In this assay, the parental HEK293 cell line transfected with a cyclic-nucleotide gated ion channel (CNGC)-based cAMP sensor is used to measure inhibition of isoproterenol-induced CNGC …; type: functional; details: Homo sapiens
[22] = M. tuberculosis H37Rv growth inhibitors, H37Rv strain (AID 1626); type: functional
Streptokinase A = molecular target: T5, Streptokinase A (Streptococcus pyogenes serotype M1, UniProt P10520); assay: viability-normalized secreted streptokinase activity reduction – plasminogen activation absorbance, OD405, dose response (AID 1914); type: functional, Streptococcus pyogenes M1 GAS;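 also: secreted streptokinase activity via plasminogen activation per viability signal from cell pellet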
T5 sequence (P10520 whole entry): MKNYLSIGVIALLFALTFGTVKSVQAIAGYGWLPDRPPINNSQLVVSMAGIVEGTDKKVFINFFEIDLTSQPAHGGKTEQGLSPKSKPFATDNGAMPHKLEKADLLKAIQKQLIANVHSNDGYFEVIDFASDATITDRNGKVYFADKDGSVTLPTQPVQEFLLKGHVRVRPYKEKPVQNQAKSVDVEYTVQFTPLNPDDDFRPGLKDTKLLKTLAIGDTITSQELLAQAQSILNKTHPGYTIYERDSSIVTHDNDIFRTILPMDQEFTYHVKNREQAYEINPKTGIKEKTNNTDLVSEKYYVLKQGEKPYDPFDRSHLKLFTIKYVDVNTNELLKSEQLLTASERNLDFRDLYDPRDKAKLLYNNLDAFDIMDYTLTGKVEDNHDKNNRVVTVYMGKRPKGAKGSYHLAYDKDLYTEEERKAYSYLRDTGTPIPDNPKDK

Streptococcus = assay: GAS UMAA2166 growth inhibition – luminescence, BacTiterGlo, counter-screen for streptokinase expression inhibitor project, dose response (AID 1915); type: functional, organism-based;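 also: potency for reduction of bacterial viability or growth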

NS3, sequence (A3EZJ3 whole entry): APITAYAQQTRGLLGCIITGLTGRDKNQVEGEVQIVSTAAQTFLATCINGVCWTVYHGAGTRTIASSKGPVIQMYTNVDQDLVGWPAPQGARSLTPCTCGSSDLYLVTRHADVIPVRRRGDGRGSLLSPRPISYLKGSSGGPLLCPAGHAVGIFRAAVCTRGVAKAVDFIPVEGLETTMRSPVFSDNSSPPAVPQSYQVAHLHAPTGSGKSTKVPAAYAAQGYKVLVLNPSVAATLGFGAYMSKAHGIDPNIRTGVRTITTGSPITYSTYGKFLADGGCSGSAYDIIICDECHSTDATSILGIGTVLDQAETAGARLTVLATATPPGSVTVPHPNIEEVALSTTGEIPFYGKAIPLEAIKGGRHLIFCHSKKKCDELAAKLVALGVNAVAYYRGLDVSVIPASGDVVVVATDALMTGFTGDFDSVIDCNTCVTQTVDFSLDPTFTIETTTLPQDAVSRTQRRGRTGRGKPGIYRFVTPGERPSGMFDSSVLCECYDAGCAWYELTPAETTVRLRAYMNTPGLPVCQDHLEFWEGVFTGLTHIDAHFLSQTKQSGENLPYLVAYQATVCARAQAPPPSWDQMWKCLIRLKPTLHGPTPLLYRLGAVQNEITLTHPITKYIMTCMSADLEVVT

O=C(c1ccc2nc(-c3ccco3)c(-c3ccco3)nc2c1)N1CCN(c2ccccc2)CC1
EC50 [1]: 18 µM (active) | IC50 (NS3): 19.7 µM (not active) | EC50 [2]: > 20 µM (not active)

CCCCNC(=O)c1onc(CSc2ccccc2F)c1C(=O)O
IC50 [3]: 14.7 µM (not active) | IC50 [4]: 13.3 µM (not active)

Nn1c(Cc2cccc3ccccc23)nnc1SCc1c(Cl)cccc1Cl
IC50 [3]: 5.1 µM (active) | IC50 [4]: 4.3 µM (active)

O=c1ccc2c(-c3ccccc3)c3ccc(O)cc3oc-2c1
IC50 [5]: > 20 µM (inactive) | IC50 (HEK293 [6]): > 89.1 µM (inactive) | IC50 (Beta-lactamase [7]): 0.399 µM (active) | EC50 (Insulin-degrading enzyme [8]): > 54.6 µM (inactive) | EC50 (Insulin-degrading enzyme [9]): > 54.6 µM (inactive) | IC50 (NS3): 7.38 µM (active) | EC50 (HEK293 [10]): > 54.6 µM (inactive) | IC50 (Beta-lactamase [11]): 0.19 µM (active)

O=C(N/N=C/c1cc(Br)c(O)c(Br)c1)c1cc2c(ccc3ccccc32)o1
IC50 [12]: > 50 µM (active) | EC50 [13]: 1.45 µM (active) | IC50 (Large T antigen): 19.9 µM (active) | EC50 [14]: 0.763 µM (active) | EC50 [15]: 2.58 µM (active) | EC50 [16]: 64.7 µM (active)

Clc1ccc(-n2c(-c3cccc(Br)c3)nc3nc4ccccc4nc32)cc1
EC50 [17]: 12 µM (not active) | EC50 [18]: 1.58 µM (active) | EC50 [19]: 2.98 µM (active) | EC50 [20]: 10.1 µM (not active) | IC50 (HEK293 [21]): 5.7 µM (active) | IC50 [22]: > 100 µM (active) | EC50 (Streptokinase A): > 150 µM (not active) | EC50 (Streptococcus): 79.4 µM (active)

— ChEMBL document CHEMBL1201862, “PubChem BioAssay data set” (2004)
